Consider 5 compounds from patent US8741559B2, “Cellular assay employing detectable protein” (DiscoveRx Corporation, priority 2009, dated 2014).

The structures appear in SMILES notation.

One assay has as its system FRAP1. The assay can be described thus: Phospho-Akt1 (Ser473) cellular assay. Type of assay: cell-based, human. The note with it: Hek 293 cells; for dose response in the phospho-Akt1 (Ser473) assay: FIG. 5; for IC50 through the FRAP1 pathway compared with the PDPK1 pathway: anti-phospho Akt1 (Ser473) versus anti-phospho Akt (Thr308) assays. On the procedure:
(§1) In this cellular assay, compounds were tested for their ability to inhibit Braf, by measuring the phosphorylation of Mek1, a direct kinase substrate of Braf. A375 cells expressing the constitutively active Braf V600E mutation were plated at a density of 3e5 cells/mL in a 10 cm plate and transfected with expression plasmid encoding detectable protein (16 μg) in 1 mL OPTI-MEM buffer (GIBCO/Invitrogen) with 40 μL Lipofectamine 2000 (Invitrogen) and incubated at 37° C. for 18-22 h. On the following day, media was removed and cells washed with PBS, trypsinized then quenched with M3 media (DMEM containing 10% FBS). Cells were counted and resuspended in M3 complete media to a density of […] and then plated at 50,000 cells/well/100 μL into a 96-well plate and incubated at 37° C. for 3h. Media was then removed and starvation media (0.5% FBS/DMEM) was added to the wells and allowed to incubate overnight. On the following day, the cells were incubated with compound in M3 starvation media and incubated at 37° C. for 2 hours.
The cells were centrifuged at 3000 rpm for 20 minutes. […] Lysate dilution was carried out in two steps. The 96-well plate containing 10 μL extract aliquot was thawed at room temp, and 40 microliters of a solution of 0.1% BSA /1× PBS 0.05% Tween with 2 nM nucleic acid tag serving as the NF-κB probe was added, and mixed by orbital shaking at 450 rpm at room temp for 10 min. Then 270 microliters of a solution of 20 microgram per mL sheared salmon sperm DNA in 0.1% BSA/1× PBS 0.05was added, and mixed gently by pipetting up and down.
On the following day, beads were pelleted then washed/blocked and resuspended in 1-2×2% BSA/PBST and plated out onto a 96-well polypropylene plate at half the original stock concentration. The phospho-MEK1 binding assay was carried out on a separate plate containing 25 μL of beads and 100 μL 2% BSA/PBST which was shaken until the addition of cell lysate. For the binding assay, beads were first pelleted and the buffer aspirated, and then 100 μL of diluted lysate was added to each well and the plate was shaken at room temperature for one hour. After the binding step, the beads were pelleted for 4 minutes, the buffer aspirated and 150 μL of PBST was added. The plate was briefly shaken and then pelleted over a magnet and then washed two to four times with wash buffer (1× PBS/0.05% Tween 20) to remove unbound proteins. After the final wash, the beads were resuspended in 150 μL of IgG elution buffer (Pierce Cat No. 21004) supplemented with Tween 20 to 0.05% and incubated at room temperature with shaking for 60 minutes. After pelleting the beads, 50 μL of the eluted mixture was removed, and added to 30 μL of 200 mM Tris base, mixed well, and then transferred to the DNA detection assay. For qPCR, 2.5 μL was transferred to 7.5 μL of mastermix with appropriate primers and probes (Applied Biosystems).
As shown in the diagram in FIG. 2, the PIK3CA kinase mediates signaling through two separate pathways, e.g., by direct activation of the kinase substrates FRAP1 (the kinase domain of mTOR), or other less-studied kinases known as “PDK2” in the literature and PDPK1, both of which in turn phosphorylate Akt. […] Therefore, using this cellular assay, compounds were interrogated for their inhibitory mechanism not only against PIK3CA but also against FRAP1 or PDPK1, by measuring site-specific phosphorylation of Akt. […] A binding assay using anti-total Akt1 antibody was also run in parallel to normalize the amount of measured phospho-Akt1 across wells.

The next assay has as its system PDPK1. As to the kind of experiment: Phospho-Akt1 (Thr308) cellular assay. The note with it: Hek 293 cells, FIG. 6. Type of assay: cell-based, human. On the procedure:
as §1, with “On the following day, the cells were incubated with compound in M3 starvation media and incubated at 37° C. for 2 hours.” left out
As shown in the diagram in FIG. 2, the PIK3CA kinase mediates signaling through two separate pathways, e.g., by direct activation of the kinase substrates FRAP1 (the kinase domain of mTOR), or other less-studied kinases known as “PDK2” in the literature and PDPK1, both of which in turn phosphorylate Akt. […] A binding assay using anti-total Akt1 antibody was also run in parallel to normalize the amount of measured phospho-Akt1 across wells.

With `O=C(NCCCNc1nc(Nc2cccc(NC(=O)N3CCCC3)c2)ncc1I)c1cccs1` [BX-795], in the assay on FRAP1, the “dose response in the phospho-Akt1 (Ser473) assay” value (shortened to “dose response in the phospho-Akt1”) is “insensitive” and the “IC50 through the FRAP1 pathway compared with the PDPK1 pathway” value was “selectively inhibiting PDPK1 over FRAP1”.
Turning to `Oc1cccc(-c2nc(N3CCOCC3)c3oc4ncccc4c3n2)c1` [PI103], the “IC50 through the FRAP1 pathway compared with the PDPK1 pathway” value in the assay with FRAP1 was “nearly equipotent IC50”.
In the case of `Nc1nc(N)c2nc(-c3cccc(O)c3)c(-c3cccc(O)c3)nc2n1` [TG-100-115], the “dose response in the phospho-Akt1” value in the assay with FRAP1 is listed as “insensitive”.
Consider `FC(F)c1nc2ccccc2n1-c1nc(N2CCOCC2)nc(N2CCOCC2)n1` [ZSTK-474], for which, in the assay with FRAP1, the “IC50 through the FRAP1 pathway compared with the PDPK1 pathway” value was “nearly equipotent IC50s”.
As for `C[C@@H]1C[C@H]2O[C@@H]2/C=C\C=C\C(=O)Cc2c(Cl)c(O)cc(O)c2C(=O)O1` [radicicol], in the assay on FRAP1, the “dose response in the phospho-Akt1” value was “partially sensitive”. In addition, in the assay on PDPK1, the “inhibition of Thr308 phosphorylation of Akt” value is listed as “could only partially inhibit Thr308 phosphorylation”.
